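Following 48 hours of exposure in 96-well plates, responses at five concentrations were used to interpolate endpoints linearly. The concentration for 50% growth inhibition is given as GI50.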 Active and inactive are the calls of the source. Rule as the data show it: active = GI50 up to about 1.1 µM and inactive = higher.
Key:
Assay in all cases: NCI anticancer screen, dose series, 48 h
K562 = test system: K562
SK-MEL-5 = test system: SK-MEL-5
CAKI-1 = test system: CAKI-1
ACHN = test system: ACHN
SK-MEL-2 = test system: SK-MEL-2
HCT-116 = test system: HCT-116
SK-MEL-28 = test system: SK-MEL-28
UACC-257 = test system: UACC-257
RXF 393 = test system: RXF 393
M14 = test system: M14
SR = test system: SR
DLD-1 = test system: DLD-1
HCC 2998 = test system: HCC 2998
A498 = test system: A498
MDA-MB-435 = test system: MDA-MB-435
MDA-N = test system: MDA-N
MCF7 = test system: MCF7
NCI/ADR-RES = test system: NCI/ADR-RES
PC-3 = test system: PC-3
MDA-MB-231 = test system: MDA-MB-231

Measured: GI50

CCCCCCCCCc1cc(=O)c2ccc(O)cc2o1
inactive: K562 14.5 µM | SK-MEL-5 43.5 µM | CAKI-1 4.66 µM | ACHN 42.2 µM | SK-MEL-2 10.3 µM | HCT-116 38.5 µM | SK-MEL-28 > 100 µM | UACC-257 65.3 µM | RXF 393 31.4 µM | M14 > 100 µM | SR 24.3 µM | DLD-1 > 100 µM

O=C1c2c(nc3ccccc3c2-c2ccccc2)CN1Nc1ccccc1
inactive: K562 > 100 µM | SK-MEL-5 > 100 µM | CAKI-1 > 100 µM | HCC 2998 > 100 µM | SK-MEL-2 > 100 µM | HCT-116 > 100 µM | UACC-257 > 100 µM | M14 > 100 µM | SR > 100 µM | DLD-1 > 100 µM

COc1ccc2nc(NC(=O)C(=O)NNC(=O)c3ccncc3)sc2c1
inactive: K562 > 100 µM | SK-MEL-5 > 100 µM | CAKI-1 > 100 µM | A498 > 100 µM | HCC 2998 > 100 µM | ACHN > 100 µM | HCT-116 > 100 µM | SK-MEL-28 > 100 µM | UACC-257 > 100 µM | RXF 393 > 100 µM | M14 > 100 µM | DLD-1 > 100 µM

CC(C)=CC(C(O)c1ccccc1)S(=O)(=O)c1nccn1C (stereo not given)
inactive: K562 > 100 µM | SK-MEL-5 > 100 µM | HCC 2998 > 100 µM | ACHN > 100 µM | SK-MEL-2 > 100 µM | HCT-116 > 100 µM | SK-MEL-28 > 100 µM | UACC-257 > 100 µM | RXF 393 > 100 µM | M14 > 100 µM | SR > 100 µM | DLD-1 > 100 µM

COc1ccc(/C=C2/CCCC/C2=N/O)cc1
inactive: K562 > 10 µM | A498 24.2 µM | HCC 2998 > 100 µM | ACHN 88.9 µM | SK-MEL-2 > 100 µM | HCT-116 87.7 µM | SK-MEL-28 > 100 µM | UACC-257 > 100 µM | RXF 393 40.8 µM | M14 > 100 µM | DLD-1 67.5 µM

CC(=N\N=C\c1ccccn1)/C(C)=N/N=C(C)/C(C)=N/N=C(C)/C(C)=N/N=C/c1ccccn1
inactive: MDA-MB-435 > 100 µM | K562 > 100 µM | MDA-N > 100 µM | SK-MEL-5 > 100 µM | CAKI-1 > 100 µM | A498 > 100 µM | HCC 2998 > 100 µM | ACHN > 100 µM | SK-MEL-2 > 100 µM | HCT-116 > 100 µM | SK-MEL-28 > 100 µM | UACC-257 > 100 µM | MCF7 > 100 µM | RXF 393 > 100 µM | M14 > 100 µM | NCI/ADR-RES > 100 µM | SR > 100 µM | PC-3 > 100 µM | MDA-MB-231 > 100 µM

CC1(C)C(=O)/C(=C/c2ccccc2)C(C)(C)C1(C)C
inactive: MDA-MB-435 29.4 µM | K562 35.2 µM | MDA-N 39.1 µM | SK-MEL-5 55 µM | CAKI-1 49.1 µM | A498 36.1 µM | HCC 2998 > 91.4 µM | ACHN 53.3 µM | SK-MEL-2 > 43.5 µM | HCT-116 38.5 µM | SK-MEL-28 > 100 µM | UACC-257 > 100 µM | MCF7 35.2 µM | RXF 393 > 100 µM | M14 85.1 µM | NCI/ADR-RES > 90.6 µM | SR 37 µM | PC-3 53.7 µM | MDA-MB-231 > 93.8 µM

COc1cc(C(c2ccc3c(c2)OCO3)C2SCCCS2)cc(OC)c1OC (stereo not given)
active: MDA-MB-435 0.661 µM | MDA-N 0.372 µM | SR 0.332 µM
inactive: K562 1.85 µM | SK-MEL-5 3.34 µM | CAKI-1 2.67 µM | A498 1.9 µM | HCC 2998 2.99 µM | ACHN 5.52 µM | SK-MEL-2 77.4 µM | HCT-116 2.59 µM | SK-MEL-28 4.91 µM | UACC-257 6.08 µM | MCF7 2.62 µM | RXF 393 1.35 µM | M14 3.6 µM | NCI/ADR-RES 2.15 µM | PC-3 3.6 µM | MDA-MB-231 2.3 µM

CC(C)(C)c1cc(COc2c3sc(=S)sc3c(OCc3cc(C(C)(C)C)cc(C(C)(C)C)c3)c3sc(=S)sc23)cc(C(C)(C)C)c1
inactive: K562 > 100 µM | SK-MEL-5 > 100 µM | CAKI-1 > 100 µM | A498 > 100 µM | HCC 2998 > 100 µM | ACHN > 100 µM | HCT-116 > 100 µM | SK-MEL-28 > 100 µM | UACC-257 > 100 µM | RXF 393 > 100 µM | M14 > 100 µM | DLD-1 > 100 µM

CCOC(=O)C(=O)Nc1ccc(Cl)c(C(F)(F)F)c1
inactive: K562 > 100 µM | SK-MEL-5 > 100 µM | CAKI-1 > 100 µM | HCC 2998 > 100 µM | ACHN > 100 µM | SK-MEL-2 > 100 µM | HCT-116 > 100 µM | SK-MEL-28 > 100 µM | UACC-257 > 100 µM | RXF 393 > 100 µM | M14 > 100 µM | SR > 100 µM | DLD-1 > 100 µM

Cn1c(=S)sc2nc3ccccc3n2c1=S
inactive: MDA-MB-435 7.45 µM | K562 2 µM | MDA-N 12.6 µM | SK-MEL-5 12.2 µM | CAKI-1 14.6 µM | A498 19.3 µM | HCC 2998 19.6 µM | ACHN 11.3 µM | SK-MEL-2 51.1 µM | HCT-116 2.49 µM | SK-MEL-28 12.4 µM | UACC-257 12.3 µM | MCF7 2.26 µM | RXF 393 10.9 µM | M14 4.47 µM | NCI/ADR-RES 13.4 µM | SR 2.37 µM | PC-3 19.6 µM | MDA-MB-231 19.3 µM

O=C1OC(c2ccccc2)=N/C1=C/C=C/c1ccco1
inactive: K562 > 100 µM | SK-MEL-5 > 100 µM | CAKI-1 > 100 µM | HCC 2998 > 100 µM | ACHN > 100 µM | SK-MEL-2 > 100 µM | SK-MEL-28 > 100 µM | RXF 393 > 100 µM | M14 > 100 µM | SR > 100 µM | DLD-1 > 100 µM

O=C(Nc1ccccc1-c1nn(CO)c(=S)n(CO)c1=O)C(F)(F)F
inactive: K562 > 100 µM | SK-MEL-5 31.8 µM | CAKI-1 > 100 µM | HCC 2998 > 100 µM | ACHN > 100 µM | SK-MEL-2 > 100 µM | HCT-116 > 100 µM | SK-MEL-28 > 100 µM | RXF 393 > 100 µM | M14 > 100 µM | SR > 100 µM | DLD-1 95.7 µM

O=c1oc2ccc([N+](=O)[O-])cc2cc1Br
inactive: MDA-MB-435 > 100 µM | K562 > 100 µM | MDA-N > 100 µM | SK-MEL-5 > 100 µM | CAKI-1 > 100 µM | A498 > 100 µM | HCC 2998 > 100 µM | ACHN 78.5 µM | SK-MEL-2 > 100 µM | HCT-116 > 100 µM | SK-MEL-28 > 100 µM | UACC-257 > 100 µM | MCF7 > 100 µM | RXF 393 21.7 µM | M14 35.7 µM | NCI/ADR-RES > 100 µM | SR 47.3 µM | PC-3 > 100 µM | MDA-MB-231 > 100 µM

Reference: ChEMBL document CHEMBL1201862, “PubChem BioAssay data set” (2004)
